Source: patent US20240189294A1, “METHOD FOR REGULATING SEBACEOUS GLAND” (BUDDHIST TZU CHI MEDICAL FOUNDATION, priority 2021, published 2024)
Entries after “also recorded” stand apart in the source; their conditions may differ.

Tests used:
[1] = tested on: hair follicle pigmentation; assay: Fontana-Masson staining of hair follicle pigmentation after topical CK1 inhibitor; format: in vivo, C57BL/6J mice; conditions: topical 0.04 mg every other day, total 0.12 mg per 1 cm^2, mice 8 weeks old (telogen); FIG. 5E
Method: (§1) Mice at 8 weeks old were shaved to remove hair on back skin and cleaned with 75% ethanol. Topical CKIs were applied on the back skin 3 times in one week, and the tissue was harvested on day 7, day 14 and some on day 28 after application of CKIs. The tissue was analyzed by the methods described below.
(§2) Skin samples were harvested at indicated timings for tissue analysis. Paraffin-embedded specimens were cut into 5-μm sections. After deparaffinization (with tissue slides being soaked in xylene three times, each time for 5 min) and rehydration (with slides being incubated in the following graded series of ethanol: 100%, 100%, 95%, 90% and 70%, 5 min each), the slides were rinsed with distilled water for 5 min.
Fontana-Masson staining and H&E staining were performed by using the kit from ScyTek Laboratories, Inc. according to the manufacturer's instructions.
Briefly, for Fontana-Masson staining, a freshly mixed ammoniacal silver solution was placed in a 58° C. to 60° C. water bath and allowed to equilibrate. The slides were incubated in a warmed ammoniacal silver solution for 30 to 60 min or until the tissue sections became yellow/brown in color, and were then rinsed with distilled water for 3 to 5 seconds (s). The slides were incubated in a gold chloride solution (0.2%) for 30 s and were then rinsed with distilled water for 3 to 5 s. […]

β-catenin = assay: Immunohistochemical staining of β-catenin in back skin after topical CK1 inhibitor; format: in vivo, C57BL/6J mice; conditions: topical 0.04 mg every other day, total 0.12 mg per 1 cm^2, mice 8 weeks old; FIG. 5D
Method: as §1, §2
Paraffin sections were incubated in a humidity chamber for 15 min at 60° C. Sections were deparaffinized in two changes of xylene for 5 min each and hydrated in two changes of 100% ethanol for 5 min each, then in 95% and 80% ethanol for 5 min each, and finally rinsed in distilled water. Antigen retrieval was enhanced by microwaving the slides in a citrate buffer (DAKO; pH 6.0) for 20 min. Endogenous peroxidase activity was quenched with 3% hydrogen peroxide in methanol. After blocking, sections were incubated overnight at 4° C. with β-catenin antibody (1/100; BD Bioscience). Secondary antibodies used were horseradish peroxidase (HRP)-polymer anti-mouse antibodies (Nichirei). […]

hair follicles = assay: Topical application of CK1 inhibitors on shaved back skin of wild-type mice: hair growth phenotype and H&E staining (hair cycle phase); format: in vivo, C57BL/6J mice; conditions: topical 0.04 mg every other day, total 0.12 mg per 1 cm^2, mice 8 weeks old; for hair growth on the back skin (phenotype): three times, N=3, FIG. 5B; for hair cycle phase, H&E staining of back skin: FIG. 5C
Method: K14-Cr-ERT2-CK1α^fl/fl mice, Mc1r^549del mice and Mc1r^549del mice with CK1α ablation in keratinocytes (CK1α^−/−Mc1r^549del) were collaboratively generated in National Laboratory Animal Center (NLAC) in Tainan, Taiwan, and wild type C57BL/6J mice were also purchased from NLAC. Experiments and animal caring were performed in the Laboratory Animal Center, Tzu Chi University, Hualien, Taiwan, with the approval of Animal Care Committee in accordance with legal and ethical standards. Both male and female mice were used. The hair cycle in wild C57BL/6J mice is related to the age; weeks 4 to 6 are an anagen phase, weeks 6 to 7 are a catagen phase, and weeks 7 to 12 are a telogen phase.
A51 is a gift from Dr. Yinon Ben-Nerian's lab (which was published in Cell, Volume 175, Issue 1, 20 Sep. 2018, pages 171-185). For topical application onto mouse skin, 1 mg of CKI was dissolved in 6 μL dimethyl sulfoxide (DMSO) and mixed with 54 μL of vehicle which contained 60% of white wax and 40% of paraffin oil. The final working concentration is 0.1 mg/cm^2.
D4476 was purchased from Sigma Aldrich (#D1944). For topical application onto mouse skin, 4 mg of CKI was dissolved in 1 mL DMSO as the stock. 10 μL stock was mixed with 40 μL of vehicle which contained 60% of white wax and 40% of paraffin oil. The final working concentration is 0.04 mg/cm^2.
IC261 was purchased from Sigma Aldrich (#40090). For topical application onto mouse skin, 4 mg of CKI was dissolved in 1 mL DMSO as the stock. 10 μL stock was mixed with 40 μL of vehicle which contained 60% of white wax and 40% of paraffin oil. The final working concentration is 0.04 mg/cm^2.
as §1, §2
For histopathology by H&E staining, skin tissues were fixed overnight in 10% neutral buffered formalin at 4° C. and then transferred to 70% ethanol before being processed and embedded in paraffin. Paraffin sections were then stained with H&E.

[2] = tested on: SZ95 cells (human sebocyte cell line); assay: WST-1 assay in SZ95 cells; format: cell-based; conditions: 1.5×10^4 cells/well, treated for 24 hr, FIG. 8B
Method: SZ95 cells (human sebocyte cell line) were maintained in Sebomed basal Medium (Sigma) supplemented with 10% FBS and 5 ng/mL epidermal growth factor under standard cell culture conditions of 37° C. and 5% CO2.
WST-1 assay. Seeding cells with density 1.5×10^4 cells/well in 96-well plate, incubate overnight. Remove medium and add 100 μL fresh medium contain various amount of IC261 (1, 50, 100, 200, 500, 1000 nM) in each well, incubate for 24 hr. Add 10 μL/well WST-1, incubate for 4 hr. Measure the absorbance of OD 450 nm and OD 655 nm by ELISA reader.

PPARγ = assay: Western blot of PPARγ in SZ95 cells; format: cell-based, human; conditions: IC261 at different concentrations vs DMSO, FIG. 8C
Method: (§3) For experiments involving tissues, the tissues were homogenized and lysed in 1× tissue protein extraction reagent (Thermo Fisher) containing protease inhibitor (Millipore) and kept on ice; for experiments involving cells, cell pellet was collected and lysed in 1×radioimmunoprecipitation assay (RIPA) lysis buffer containing protease inhibitor (Millipore) and kept on ice. The total protein concentration was determined using Protein Assay Dye Reagent Concentrate (Bio-Rad) following manufacturer's instruction with a microplate reader. Sample was diluted in SDS-PAGE Sample Buffer (Bio-Rad) and heated at 95° C. for 5 minutes. The protein sample was then resolved on SDS-PAGE gels (TGX FastCast acrylamide solutions, Bio-Rad) and transferred onto poly(vinylidene fluoride) (PVDF) membranes (Millipore). 5% BSA was used, and then the membranes were incubated with primary antibodies overnight at 4° C. The membranes were then washed by Tris-buffered saline with Tween 20 (TBST) and incubated with secondary antibodies for 1 hour at room temperature. The signal was detected using iBright FL1000 Imaging System from Thermo Fisher Scientific.
(§4) The antibodies used in immunohistochemistry (IHC) and Western blotting (WB) in this disclosure were listed in Table 1 below, where manufacturers, catalogue number and the dilution ratio used were provided. […]

c-Myc = assay: Western blot of c-Myc in SZ95 cells; format: cell-based, human; conditions: IC261 at different concentrations vs DMSO, FIG. 8C
Method: as §3, §4

LC3B = assay: Western blot of LC3B (autophagy marker) in SZ95 cells; format: cell-based, human; conditions: FIG. 8D
Method: as §3, §4

Structure (SMILES) | hair follicle pigmentation, Fontana-Masson staining [1] | expression of β-catenin, immunohistochemical staining (β-catenin) | hair growth on the back skin (phenotype) (hair follicles) | hair cycle phase, H&E staining of back skin (hair follicles) | IC50 [2] | PPARγ expression (biomarker for adipogenesis) (PPARγ) | c-Myc expression (biomarker for undifferentiated sebocytes) (c-Myc) | LC3B expression (marker for autophagy) (LC3B)
NC(=O)c1ccc(-c2nc(-c3ccc4c(c3)OCCO4)c(-c3ccccn3)[nH]2)cc1 [D4476] | induce hair follicle growth and pigmented hair formation; also recorded: Heavily pigmented hair follicles and shafts | increased the expression of β-catenin in the matrix of hair follicle | significantly induced hair growth | induces an anagen phase of the hair cycle | – | – | – | –
COc1cc(OC)c(C=C2C(O)=Nc3ccccc32)c(OC)c1 [IC261] | induce hair follicle growth and pigmented hair formation; also recorded: Heavily pigmented hair follicles and shafts | increased the expression of β-catenin in the matrix of hair follicle | significantly induced hair growth | induces an anagen phase of the hair cycle | ~476 nM | decreased | increased | increase with a dose dependent manner
